According to ChEMBL document CHEMBL5104187, “Discovery of 2-(1-(3-Chloro-4-cyanophenyl)-1H-pyrazol-3-yl)acetamides as Potent, Selective, and Orally Available Antagonists Targeting the Androgen Receptor” (J Med Chem, 2022):
Calls of active or inactive are those of the source. No cut-off for these calls is given here.

Legend:
Androgen receptor [1] = molecular target: T1, Androgen receptor (Homo sapiens, UniProt P10275); assay: Antagonist activity at androgen receptor (unknown origin) in human LNCap-ARR2PB-eGFP cells by measuring fluorescence intensity measured after 3 days by transcriptional assay; format: cell-based
T1 sequence (P10275 whole entry): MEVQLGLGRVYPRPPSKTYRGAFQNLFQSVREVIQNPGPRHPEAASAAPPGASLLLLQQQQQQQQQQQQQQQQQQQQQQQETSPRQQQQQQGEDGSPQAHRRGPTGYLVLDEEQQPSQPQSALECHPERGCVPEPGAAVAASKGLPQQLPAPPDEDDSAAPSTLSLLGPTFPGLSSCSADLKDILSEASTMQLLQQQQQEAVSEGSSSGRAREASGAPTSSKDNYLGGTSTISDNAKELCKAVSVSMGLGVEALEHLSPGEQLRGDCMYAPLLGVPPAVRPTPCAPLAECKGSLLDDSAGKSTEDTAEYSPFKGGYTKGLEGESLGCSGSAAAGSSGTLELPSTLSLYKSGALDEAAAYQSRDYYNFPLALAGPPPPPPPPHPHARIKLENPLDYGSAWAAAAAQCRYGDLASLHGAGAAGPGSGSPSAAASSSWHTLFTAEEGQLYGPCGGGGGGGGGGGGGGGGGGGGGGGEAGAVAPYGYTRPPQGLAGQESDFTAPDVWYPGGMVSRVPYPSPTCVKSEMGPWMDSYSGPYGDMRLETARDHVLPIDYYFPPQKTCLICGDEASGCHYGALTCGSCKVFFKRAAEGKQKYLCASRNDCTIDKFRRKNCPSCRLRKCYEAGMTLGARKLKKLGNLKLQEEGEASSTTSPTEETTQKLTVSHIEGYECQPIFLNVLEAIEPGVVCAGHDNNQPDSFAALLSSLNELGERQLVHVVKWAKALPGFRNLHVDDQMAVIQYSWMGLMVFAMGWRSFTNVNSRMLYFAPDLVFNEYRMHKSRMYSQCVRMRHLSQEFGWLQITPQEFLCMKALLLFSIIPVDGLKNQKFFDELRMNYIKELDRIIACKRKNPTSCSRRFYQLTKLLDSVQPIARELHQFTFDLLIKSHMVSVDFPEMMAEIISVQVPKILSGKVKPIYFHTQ

Androgen receptor [2] = molecular target: T2, Androgen receptor (Homo sapiens, UniProt P10275, F877L/T878A); assay: Antagonist activity at androgen receptor F877L/T877A dual mutant (unknown origin) expressed in PC-3 cells assessed as inhibition of transcriptional activity measured after 24 hrs by dual luciferase assay; format: cell-based
Androgen receptor [3] = molecular target: T3, Androgen receptor (Homo sapiens, UniProt P10275, F877L); assay: Antagonist activity at androgen receptor F877L mutant (unknown origin) expressed in PC-3 cells assessed as inhibition of transcriptional activity measured after 24 hrs by dual luciferase assay; format: cell-based
[4] = Toxicity in CB17 SCID mouse xenografted with human LNCAP cells assessed as body weight loss at 100 mg/kg/day,po measured upto 4 weeks; format: organism-based; conditions: in vivo, 672 h
Androgen receptor [5] = molecular target: T3, Androgen receptor; assay: Antagonist activity at androgen receptor F877L mutant in human PC-3 cells assessed as inhibition of transcriptional activity measured after 24 hrs by luminescence based microplate reader assay; format: cell-based
LNCaP [6] = assay: Antitumor activity against human LNCAP cells xenografted in CB17-SCID mouse model assessed as inhibition of tumor growth at 40 mg/kg/day, po measured upto 4 weeks; format: functional, organism-based
Androgen receptor [7] = molecular target: T2, Androgen receptor; assay: Antagonist activity at androgen receptor F876L/T877A mutant in human PC-3 cells assessed as inhibition of transcriptional activity measured after 24 hrs by luminescence based microplate reader assay; format: cell-based
Androgen receptor [8] = molecular target: T1, Androgen receptor
[9] = Cytotoxicity against human GES1 cells assessed as inhibition of cell proliferation by MTT assay; format: toxicity, cell-based
[10] = Antagonist activity at mineralocorticoid receptor (unknown origin) transfected in PC-3 cells assessed as inhibition of […]-stimulated transcriptional activity after 3 days by dual luciferase reporter assay; format: cell-based; conditions: Homo sapiens, PC-3, 72 h
[11] = Antagonist activity at androgen receptor T878G mutant (unknown origin) expressed in PC-3 cells assessed as inhibition of transcriptional activity measured after 24 hrs by dual luciferase assay; format: cell-based; conditions: Homo sapiens, PC-3, 24 h
[12] = molecular target: T4, Androgen receptor (Homo sapiens) (UniProt P10275); assay: Antagonist activity at human AR AF2 assessed as inhibition of fluorescent-labelled D11-FxxLF peptide Co-activator to receptor by TR-FRET assay; conditions: filed as antagonist
T4 sequence (whole entry): T1 sequence (P10275 whole entry)

LNCaP [13] = assay: Cytotoxicity against human LNCAP cells assessed as inhibition of cell proliferation by MTT assay; format: functional, cell-based
[14] = Inhibition of PSA secretion in human LNCaP ARR2PB-eGFP cells measured after 3 days by immuno assay; format: functional, cell-based; conditions: 72 h
[15] = Cytotoxicity against human Chang liver cells assessed as inhibition of cell proliferation by MTT assay; format: toxicity, cell-based
LNCaP [16] = assay: Antitumor activity against human LNCAP cells xenografted in CB17-SCID mouse model assessed as inhibition of tumor growth at 100 mg/kg/day, po measured upto 4 weeks; format: functional, organism-based

T2 sequence (P10275 whole entry F877L/T878A): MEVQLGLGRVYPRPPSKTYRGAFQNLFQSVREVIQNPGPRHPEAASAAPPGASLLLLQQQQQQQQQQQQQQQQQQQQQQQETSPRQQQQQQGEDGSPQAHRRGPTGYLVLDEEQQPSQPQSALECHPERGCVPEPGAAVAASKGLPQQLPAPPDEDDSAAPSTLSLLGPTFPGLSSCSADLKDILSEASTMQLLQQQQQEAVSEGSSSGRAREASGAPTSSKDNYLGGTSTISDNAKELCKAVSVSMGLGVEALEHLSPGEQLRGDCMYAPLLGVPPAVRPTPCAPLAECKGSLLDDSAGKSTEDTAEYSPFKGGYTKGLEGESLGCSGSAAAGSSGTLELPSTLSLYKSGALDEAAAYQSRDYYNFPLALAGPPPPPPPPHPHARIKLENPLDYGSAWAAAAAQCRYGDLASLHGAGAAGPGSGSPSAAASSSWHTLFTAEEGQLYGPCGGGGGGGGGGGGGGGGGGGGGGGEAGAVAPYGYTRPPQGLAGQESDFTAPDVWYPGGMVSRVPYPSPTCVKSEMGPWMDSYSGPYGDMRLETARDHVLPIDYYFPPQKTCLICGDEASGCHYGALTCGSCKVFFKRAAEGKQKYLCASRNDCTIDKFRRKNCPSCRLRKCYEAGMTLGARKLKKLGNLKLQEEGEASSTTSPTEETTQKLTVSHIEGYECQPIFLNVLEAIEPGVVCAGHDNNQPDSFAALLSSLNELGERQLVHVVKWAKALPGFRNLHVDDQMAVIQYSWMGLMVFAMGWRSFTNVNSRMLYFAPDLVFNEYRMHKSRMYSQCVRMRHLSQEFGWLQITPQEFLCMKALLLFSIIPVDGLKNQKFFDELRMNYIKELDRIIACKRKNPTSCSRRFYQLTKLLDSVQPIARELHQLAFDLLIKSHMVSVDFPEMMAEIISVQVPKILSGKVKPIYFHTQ
T3 sequence (P10275 whole entry F877L): as the sequence (P10275 whole entry F877L/T878A) above, with A878T counted along it

Q: With N#Cc1ccc(C(=O)NCCCc2ccn(-c3ccc(C#N)c(C(F)(F)F)c3)n2)cc1 as the compound, how does the IC50 (Androgen receptor [1]) read?
A: The IC50 was > 25 µM.

Q: Which IC50 (Androgen receptor [1]) does the source give for N#Cc1ccc(-n2ccc(NC(=O)c3ccc(F)cc3)n2)cc1C(F)(F)F here?
A: The IC50 was > 25 µM.

Q: For N#Cc1ccc(-n2ccc(CC(=O)Nc3ccncc3)n2)cc1C(F)(F)F, which IC50 (Androgen receptor [1]) is on record?
A: The IC50 was > 25 µM.

Q: Which results are given for N#Cc1ccc(-n2ccc(CC(=O)Nc3ccc(F)nc3)n2)cc1Cl?
A: IC50 (Androgen receptor [2]): 0.27 µM; IC50 (Androgen receptor [3]): 0.46 µM; Activity [4]: Non-Toxic; IC50 (Androgen receptor [5]): 0.17 µM; Activity (LNCaP [6]): Active; IC50 (Androgen receptor [7]): 0.27 µM; Kd (Androgen receptor [8]): 20.5 µM; IC50 [9]: > 1000 µM; IC50 [10]: 5.54 µM; IC50 [11]: 0.045 µM; Activity [12]: Active; IC50 (LNCaP [13]): 6.23 µM; IC50 [14]: 0.89 µM; IC50 (Androgen receptor [1]): 0.069 µM; IC50 [15]: > 1000 µM; Activity (LNCaP [16]): Active

Q: Which IC50 (Androgen receptor [1]) does the source give for N#Cc1ccc(-n2ccc(C(=O)Nc3ccc(F)cc3)n2)cc1C(F)(F)F here?
A: The IC50 was > 25 µM.

Q: Which IC50 (Androgen receptor [1]) does the source give for N#Cc1ccc(-n2ccc(CNC(=O)c3ccc(F)nc3)n2)cc1C(F)(F)F here?
A: The IC50 was 0.78 µM.

Q: For N#Cc1ccc(-n2ccc(CCNC(=O)c3ccc([N+](=O)[O-])cc3)n2)cc1C(F)(F)F, which IC50 (Androgen receptor [1]) is on record?
A: Its IC50 is > 25 µM.

Q: For O=C(Cc1ccn(-c2ccc([N+](=O)[O-])c(C(F)(F)F)c2)n1)Nc1ccc(F)cc1, which IC50 (Androgen receptor [1]) is on record?
A: Its IC50 is 0.34 µM.

Q: Which IC50 (Androgen receptor [1]) does the source give for N#Cc1ccc(-n2cc(C(F)(F)F)c(CNC(=O)c3ccc(F)cc3)n2)cc1C(F)(F)F here?
A: The IC50 was 16.2 µM.

Q: With N#Cc1ccc(-n2ccc(CCNC(=O)c3ccc(F)cc3)n2)cc1C(F)(F)F as the compound, how does the IC50 (Androgen receptor [1]) read?
A: Its IC50 is > 25 µM.

Q: For N#Cc1ccc(-n2ccc(CNC(=O)Nc3ccc(F)cc3)n2)cc1C(F)(F)F, which IC50 (Androgen receptor [1]) is on record?
A: Its IC50 is > 25 µM.

Q: Which IC50 [9] does the source give for CNC(=O)c1ccc(N2C(=S)N(c3ccc(C#N)c(C(F)(F)F)c3)C(=O)C2(C)C)cc1F [ENZALUTAMIDE] here?
A: Its IC50 is 96.9 µM.

Q: And the IC50 [10]?
A: Its IC50 is 0.13 µM.

Q: And the IC50 (LNCaP [13])?
A: The IC50 was 26.3 µM.

Q: And the IC50 [14]?
A: The IC50 was 0.48 µM.

Q: What about the IC50 [15] of the same compound?
A: Its IC50 is 64.7 µM.

Q: With N#Cc1ccc(-n2ccc(CC(=O)Nc3ccc(F)cc3)n2)cc1Cl as the compound, how does the IC50 (Androgen receptor [1]) read?
A: The IC50 was 0.22 µM.

Q: With N#Cc1ccc(-n2ccc(CC(=O)Nc3ccc(F)cn3)n2)cc1C(F)(F)F as the compound, how does the IC50 (Androgen receptor [1]) read?
A: The IC50 was 0.34 µM.

Q: Which IC50 (Androgen receptor [1]) does the source give for Cc1ccc(NC(=O)Cc2ccn(-c3ccc(C#N)c(C(F)(F)F)c3)n2)cc1 here?
A: Its IC50 is 4.53 µM.

Q: Which IC50 (Androgen receptor [1]) does the source give for N#Cc1ccc(-n2ccc(CNS(=O)(=O)c3ccc(F)cc3)n2)cc1C(F)(F)F here?
A: Its IC50 is > 25 µM.

Q: With O=C(Cc1ccn(-c2ccc([N+](=O)[O-])c(C(F)(F)F)c2)n1)Nc1ccc(F)nc1 as the compound, how does the IC50 (Androgen receptor [1]) read?
A: Its IC50 is 0.36 µM.

Q: With Cc1cn(-c2ccc(C#N)c(C(F)(F)F)c2)nc1CNC(=O)c1ccc(F)cc1 as the compound, how does the IC50 (Androgen receptor [1]) read?
A: The IC50 was 0.22 µM.

Q: With N#Cc1ccc(-n2ccc(C(=O)Nc3ccc(F)cn3)n2)cc1C(F)(F)F as the compound, how does the IC50 (Androgen receptor [1]) read?
A: Its IC50 is > 25 µM.

Q: With COc1ccc(NC(=O)Cc2ccn(-c3ccc(C#N)c(C(F)(F)F)c3)n2)cc1 as the compound, how does the IC50 (Androgen receptor [1]) read?
A: Its IC50 is 9.2 µM.

Q: Which IC50 (Androgen receptor [1]) does the source give for N#Cc1ccc(-n2ccc(CNC(=O)c3ccc([N+](=O)[O-])cc3)n2)cc1C(F)(F)F here?
A: Its IC50 is 1.85 µM.

Q: For CNC(=O)c1ccc(C(=O)NCc2ccn(-c3ccc(C#N)c(C(F)(F)F)c3)n2)cc1F, which IC50 (Androgen receptor [1]) is on record?
A: The IC50 was > 25 µM.

Q: For N#Cc1ccc(-n2ccc(CNC(=O)c3ccc(Cl)cc3)n2)cc1C(F)(F)F, which IC50 (Androgen receptor [1]) is on record?
A: The IC50 was 1.15 µM.

Q: For N#Cc1ccc(-n2ccc(C(=O)Nc3ccc(F)nc3)n2)cc1C(F)(F)F, which IC50 (Androgen receptor [1]) is on record?
A: Its IC50 is > 25 µM.
